According to article PMC5424428, “Characteristics of L-citrulline transport through blood-brain barrier in the brain capillary endothelial cell line (TR-BBB cells)” (Journal of Biomedical Science, 2017):
Values joined by “and” are separate entries in the source; they are usually repeats but may differ in a detail not shown here. Equal values may be shown once. “Also recorded” adds a separate entry of the source. Read-outs that look alike come from different tables or passages of the source.

Experiments:
[1] = system: TR-BBB cells; test: Inhibition of [14C]L-citrulline uptake in TR-BBB cells by unlabeled amino acids, transporter inhibitors and drugs; type: cell-based, rat; conditions: for Effect on [14C]L-citrulline uptake: unlabeled compound present
Experimental: (§1) The TR-BBB cells established from transgenic rats harboring the temperature-sensitive simian virus 40 large T-antigen, an in vitro BBB model, were cultured at 33 °C as described previously (21). TR-BBB cells were received from Professor Tetsuya Terasaki (Tohoku University, Japan) and were cultured with Dulbecco’s modified Eagle’s medium (Invitrogen, San Diego, CA), supplemented with 10% fetal bovine serum, 100 U/mL penicillin, 100 μg/mL streptomycin (Invitrogen, San Diego, CA) and 15 μg/L endothelial cell growth factor (Roche, Mannheim, Germany) at 33 °C in a humidified atmosphere of 5% CO2/air. On rat tail collagen type I-coated 24 well culture plates (IWAKI, Tokyo, Japan) initial seeding was carried out at 1 × 10^5 cells/well for the uptake study. After incubation for 2 days at 33 °C, the cultures became confluent and then they were used in the transport study. L-Citrulline free medium was used all experiments except for experiments on saturation kinetics of [^14C]L-citrulline uptake (Fig. 2), Lineweaver-Burk plots for [^14C]L-citrulline uptake (Fig. 4), or inhibitory effect of L-amino acids as a control (Table 2).
(§2) The [^14C] L-citrulline uptake study was performed according to the previous report. Briefly, extracellular fluid (ECF) buffer containing [^14C]L-citrulline (44.4 μM) in the presence or absence of unlabeled inhibitors was added to the TR-BBB cells and then incubated at pH 7.4 and 37 °C for the designated time (5 min). Uptake was terminated by the addition of ice-cold ECF buffer. A Na^+ free transport medium was prepared by using LiCl, choline chloride, sodium gluconate and KHCO3 instead of NaCl and NaHCO3, respectively. The cells were then solubilized by incubation overnight in 750 μL of 1 N NaOH at room temperature, and the measurement of radioactivity was performed in a liquid scintillation counter (LS6500; Beckman, Fullerton, CA). Cell to medium ratio (μL/mg protein) was calculated as follows: the radioactivity (dpm/μL) in the sample per milligram cell protein (dpm/mg protein).
To analyze the competitive nature of L-dopa and gabapentin for [^14C]L-citrulline uptake, Lineweaver-Burk plots were generated. The inhibitory constant (K i) was calculated from Eq. (2):2 V=Vmax⋅C/Km⋅1+I/Ki+C where I corresponds to the concentration of L-dopa or gabapentin, respectively.

[2] = system: TR-BBB cells; test: [14C]L-citrulline uptake study in TR-BBB cells (time course, ion dependence, saturation kinetics); type: in vitro ADME, rat
Experimental: as §1, §2
For kinetic studies, the Michaelis-Menten constant (K m) and the maximum uptake rate (V max) of [^14C] L-citrulline were estimated from Eq. (1):1 V=Vmax⋅C/Km+C
Where V and C are the initial uptake rate of [^14C] L-citrulline at 5 min and the concentration of L-citrulline, and V max is the maximum uptake rate for the saturable component.

[3] = Rattus norvegicus, 5 min, TR-BBB cells, 5 min, pH 7.4, 37 °C, read-out: IC50 for inhibition of [14C]L-citrulline uptake
[4] = Table 2, L-amino acid 2 mM, pH 7.4, 37 °C, 5 min, mean ± S.E.M.
[5] = Table 2, L-amino acid 20 mM, pH 7.4, 37 °C, 5 min, mean ± S.E.M.
[6] = Rattus norvegicus, 5 min, pH 7.4, read-out: Uptake of [14C]L-citrulline (% of control), Table 2, L-amino acid 2 mM, pH 7.4, 37 °C, 5 min, mean ± S.E.M.

With N[C@@H](Cc1ccccc1)C(=O)O [L-Phenylalanine] the IC50 [1, 3] was 68.9 µM, the “Effect on [14C]L-citrulline uptake” value ([1]; TR-BBB cells) was “strongly inhibited” and the “Uptake of [14C]L-citrulline (% of control)” value (“Uptake … (% of control)” for short) [1, 4] was 13.7 ± 1.8 % of control. For the same compound, the “Uptake … (% of control)” value [1, 5] was 13.4 ± 1.4 % of control.
With CC(C)C[C@H](N)C(=O)O [L-Leucine] the “Uptake … (% of control)” value [1, 4] was 49.4 ± 5.8 % of control and the “Uptake … (% of control)” value [1, 5] was 17.2 ± 3.9 % of control.
N=C(N)NCCC[C@H](N)C(=O)O [L-Arginine] was tested, and the IC50 ([1]; Rattus norvegicus, 5 min, pH 7.4, read-out: IC50 for inhibition of [14C]L-citrulline uptake) was 33400 µM, the activity at 2000 µM [1, 6] was 59.9 ± 6.6% and the activity at 20000 µM ([1]; Rattus norvegicus, 5 min, pH 7.4, read-out: Uptake of [14C]L-citrulline (% of control), Table 2, L-amino acid 20 mM, pH 7.4, 37 °C, 5 min, mean ± S.E.M.) was 53.2 ± 4.4%. The “Effect on [14C]L-citrulline uptake” value ([1]; TR-BBB cells) was “significantly inhibited”.
NCCS(=O)(=O)O [Taurine] was tested, and the activity at 2000 µM ([1]; Rattus norvegicus, 5 min, Table 4, drug 2 mM, pH 7.4, 37 °C, 5 min, mean ± S.E.M., read-out: Uptake of [14C]L-citrulline (% of control)) was 90.5 ± 4.4% and the “Effect on [14C]L-citrulline uptake” value ([1]; TR-BBB cells) was “no significant effects”.
In the case of N[C@@H](CCC(=O)O)C(=O)O [L-Glutamate], the activity at 2000 µM ([1]; Rattus norvegicus, 5 min, pH 7.4, read-out: Uptake of [14C]L-citrulline (% of control)) is reported as 103 ± 7.8% and the “Effect on [14C]L-citrulline uptake” value ([1]; TR-BBB cells) is reported as “did not inhibit”.
[Cl-].[Li+] [LiCl] was tested, and the “Uptake … (% of control)” value ([2]; ion dependence: Na+ and/or Cl- replaced in the uptake buffer by the named salt, pH 7.4, 37 °C, 5 min, mean ± S.E.M.) was 116.2 ± 5.2 % of control.
With C=C[C@H]1C[N@@]2CC[C@H]1C[C@@H]2[C@@H](O)c1ccnc2ccc(OC)cc12 [Qunidine, Quinidine] the “Uptake … (% of control)” value ([1]; 5 min, 500 µM) was 52.5 ± 3.0 % of control and the “Effect on [14C]L-citrulline uptake” value ([1]; TR-BBB cells) was “significantly inhibited”.
For N[C@@H](CC(=O)O)C(=O)O [L-Aspatate, L-aspartate], the “Effect on [14C]L-citrulline uptake” value ([1]; TR-BBB cells) was “did not inhibit” and the “Uptake … (% of control)” value [1, 4] was 101.5 ± 8.6 % of control.
In the case of COc1ccc2c3c([nH]c2c1)C(C)=NCC3 [Harmaline], the “Decrease of [14C]L-citrulline uptake” value ([1]; discussion of Table 3) is reported as “about 40%”.
In the case of N[C@@H](Cc1ccc(O)c(O)c1)C(=O)O [L-Dopa], the “Mode of inhibition of [14C]L-citrulline uptake” value ([1]; Lineweaver-Burk plot) is reported as “competitively inhibited”, the Ki ([1]; Lineweaver-Burk plot, 300 μM inhibitor, pH 7.4, 37 °C, 5 min) is reported as 486 µM and the IC50 [1, 3] is reported as 501 µM. For the same compound, the “Effect on [14C]L-citrulline uptake” value ([1]; TR-BBB cells) was “strongly inhibited; also recorded: significantly inhibited”, the “Uptake … (% of control)” value ([1]; Table 4, drug 0.5 mM, pH 7.4, 37 °C, 5 min, mean ± S.E.M.) was 52.1 ± 6.6 % of control and the “Uptake … (% of control)” value ([1]; Table 4, drug 2 mM, pH 7.4, 37 °C, 5 min, mean ± S.E.M.) was 21.6 ± 2.8 % of control.
With NC(=O)NCCC[C@H](N)C(=O)O [L-Citrulline] the “Time-course of [14C]L-citrulline uptake” value ([2]; 44.4 μM, 37 °C, ECF buffer) was “linear for 5 min”, the “Ion dependence of [14C]L-citrulline uptake” value ([2]; absence of Na+ or Cl- in the uptake buffer) was “no significant difference” and the “Michaelis-Menten constant Km1 of [14C]L-citrulline uptake” value ([2]; first (Km1) of two saturable components, 0–5 mM unlabeled L-citrulline, 5 min, pH 7.4, 37 °C) was 30.9 ± 1.0 µM and 30.9 µM. The “Vmax1 of [14C]L-citrulline uptake” value ([2]; first saturable component, 5 min, pH 7.4, 37 °C) was 185 nmol/mg/min, the “Michaelis-Menten constant Km2 of [14C]L-citrulline uptake” value ([2]; second (Km2) of two saturable components, 0–5 mM unlabeled L-citrulline, 5 min, pH 7.4, 37 °C) was 1.69 ± 0.43 mM and 1.69 mM and the “Vmax2 of [14C]L-citrulline uptake” value ([2]; second saturable component, 5 min, pH 7.4, 37 °C) was 3.19 µmol/mg/min. For the same compound, the activity at 2000 µM [1, 6] was 36 ± 2.1%.
For C[C@H](N)C(=O)O [L-Alanine], the “Effect on [14C]L-citrulline uptake” value ([1]; TR-BBB cells) was “significantly inhibited” and the “Uptake … (% of control)” value [1, 4] was 73.0 ± 6.4 % of control.
In the case of Nc1c2c(nc3ccccc13)CCCC2 [tacrine], the “Effect on [14C]L-citrulline uptake” value ([1]; TR-BBB cells) is reported as “no significant inhibition effect”.
